This assay addresses T1, human FXR (Homo sapiens, UniProt Q96RI1).
T1 construct: expressed in transfected cells; host or cells: HEK293 cells stably carrying a 5xGal4-response-element firefly luciferase reporter, transiently transfected with pcDNA3.1-Gal4-FXR
T1 sequence (Q96RI1 262-486 limits assumed): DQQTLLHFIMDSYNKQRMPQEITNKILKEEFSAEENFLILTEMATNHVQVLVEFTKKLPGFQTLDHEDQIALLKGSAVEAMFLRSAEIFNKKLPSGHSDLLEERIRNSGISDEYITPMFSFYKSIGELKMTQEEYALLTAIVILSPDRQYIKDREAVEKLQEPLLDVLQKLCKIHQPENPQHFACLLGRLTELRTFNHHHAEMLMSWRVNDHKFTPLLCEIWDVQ
Put plainly: transient human FXR/Gal4-luciferase reporter assay. Type of assay: cell-based. The following applies: Gal4-hFXR LBD fusion, luciferase reporter in HEK293 cells; response relative to 8 μM GW-4064. Put shortly:
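HEK293 cells stably carrying a 5×Gal4-response-element firefly luciferase reporter were transiently transfected with Gal4-hFXR. They were then incubated overnight at 37 °C with compound serial dilutions in medium containing 10% charcoal/dextran-stripped FBS. Luminescence was read after Steady-Glo addition.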
In general terms: Reporter assays use an easily measured gene product as a stand-in for the process of interest.

By EC50 is commonly meant the concentration needed to bring the measured effect to its halfway point. Low values mean a more potent agent, high ones a less potent agent. As for `COc1ncc(-c2cccc(N(CC34CCC(c5nc(C6CC6)no5)(CC3)CC4)C(=O)C3CCCCC3)c2)o1` [Example 7, N-((4-(3-cyclopropyl-1,2,4-oxadiazol-5-yl)bicyclo[2.2.2]octan-1-yl)methyl)-N-(3-(2-methoxyoxazol-5-yl)phenyl)cyclohexanecarboxamide], the concentration giving a half-maximal response (EC50) was determined as 51 nM.

For the molecule `CN1CCC(C(=O)N(CC23CCC(c4nc(C5CC5)no4)(CC2)CC3)c2cccc(-c3nc(C4CC4)no3)c2)CC1` [Example 17, N-((4-(3-cyclopropyl-1,2,4-oxadiazol-5-yl)bicyclo[2.2.2]octan-1-yl)methyl)-N-(3-(3-cyclopropyl-1,2,4-oxadiazol-5-yl)phenyl)-1-methylpiperidine-4-carboxamide], the EC50 came to 3020 nM.
